From the NIST ThermoML archive (doi:10.1021/acs.jced.6b00542)

Experiment: xn = mol fraction of the nth substance listed
Conditions: Liquid; for mass density / viscosity: 102 kPa; for mass density: Vibrating tube method; for speed of sound: 100 kPa, Frequency=3 MHz, Sing-around technique in a fixed-path interferometer; for viscosity: Concentric cylinders viscometry

CCCCc1ccccc1 [butylbenzene] + CCCCCCCCCCCCCCCC
Conditions | mass density [kg/m3] | speed of sound [m/s] | viscosity [mPa·s]
323.15 K, x1 = 0.1586 | 759.88 | – | –
323.15 K, x1 = 0.2971 | 767.24 | – | –
323.15 K, x1 = 0.4067 | 773.97 | – | –
323.15 K, x1 = 0.5293 | 782.69 | – | –
323.15 K, x1 = 0.6278 | 790.88 | – | –
323.15 K, x1 = 0.7158 | 799.21 | – | –
323.15 K, x1 = 0.7981 | 808.17 | – | –
323.15 K, x1 = 0.8709 | 817.16 | – | –
323.15 K, x1 = 0.938 | 826.58 | – | –
323.15 K, x1 = 1 | 836.34 | – | –
333.15 K, x1 = 0.1586 | 752.86 | 1208.2 | 1.37
333.15 K, x1 = 0.2971 | 760.13 | 1204.9 | 1.24
333.15 K, x1 = 0.4067 | 766.76 | 1202.5 | 1.13
333.15 K, x1 = 0.5293 | 775.36 | 1200.2 | 1.02
333.15 K, x1 = 0.6278 | 783.43 | 1198.6 | 0.929
333.15 K, x1 = 0.7158 | 791.64 | 1197.8 | 0.856
333.15 K, x1 = 0.7981 | 800.47 | 1197.9 | 0.787
333.15 K, x1 = 0.8709 | 809.32 | 1198.3 | 0.731
333.15 K, x1 = 0.938 | 818.61 | 1199.6 | 0.68
333.15 K, x1 = 1 | 828.21 | 1201.4 | 0.636
343.15 K, x1 = 0.1586 | 745.8 | – | 1.18
343.15 K, x1 = 0.2971 | 752.9 | – | 1.07
343.15 K, x1 = 0.4067 | 759.5 | – | 0.986
343.15 K, x1 = 0.5293 | 767.9 | – | 0.893
343.15 K, x1 = 0.6278 | 775.9 | – | 0.821
343.15 K, x1 = 0.7158 | 783.9 | – | 0.757
343.15 K, x1 = 0.7981 | 792.7 | – | 0.702
343.15 K, x1 = 0.8709 | 801.4 | – | 0.653
343.15 K, x1 = 0.938 | 810.6 | – | 0.61
343.15 K, x1 = 1 | 819.9 | – | 0.571
353.15 K, x1 = 0.1586 | 738.8 | – | 1.03
353.15 K, x1 = 0.2971 | 745.8 | – | 0.939
353.15 K, x1 = 0.4067 | 752.3 | – | 0.868
353.15 K, x1 = 0.5293 | 760.5 | – | 0.792
353.15 K, x1 = 0.6278 | 768.4 | – | 0.731
353.15 K, x1 = 0.7158 | 776.2 | – | 0.677
353.15 K, x1 = 0.7981 | 784.9 | – | 0.63
353.15 K, x1 = 0.8709 | 793.5 | – | 0.588
353.15 K, x1 = 0.938 | 802.5 | – | 0.55
353.15 K, x1 = 1 | 811.7 | – | 0.516
363.15 K, x1 = 0.1586 | 731.6 | – | 0.91
363.15 K, x1 = 0.2971 | 738.6 | – | 0.833
363.15 K, x1 = 0.4067 | 744.9 | – | 0.773
363.15 K, x1 = 0.5293 | 753.1 | – | 0.708
363.15 K, x1 = 0.6278 | 760.8 | – | 0.656
363.15 K, x1 = 0.7158 | 768.5 | – | 0.61
363.15 K, x1 = 0.7981 | 777.1 | – | 0.569
363.15 K, x1 = 0.8709 | 785.4 | – | 0.532
363.15 K, x1 = 0.938 | 794.3 | – | 0.5
363.15 K, x1 = 1 | 803.4 | – | 0.469
373.15 K, x1 = 0.1586 | 724.5 | – | 0.811
373.15 K, x1 = 0.2971 | 731.3 | – | 0.746
373.15 K, x1 = 0.4067 | 737.5 | – | 0.695
373.15 K, x1 = 0.5293 | 745.5 | – | 0.639
373.15 K, x1 = 0.6278 | 753.1 | – | 0.594
373.15 K, x1 = 0.7158 | 760.8 | – | 0.553
373.15 K, x1 = 0.7981 | 769.1 | – | 0.517
373.15 K, x1 = 0.8709 | 777.5 | – | 0.484
373.15 K, x1 = 0.938 | 786.1 | – | 0.456
373.15 K, x1 = 1 | 795 | – | 0.43
